Source: patent US5212170A, “Psychotropic piperidinylmethyl benzodioxans” (American Home Products Corporation, priority 1992, dated 1993)

Tests used:
5-HT1A receptor site = conditions: cited from earlier work
dopamine D-2 receptor = molecular target: T1, dopamine D-2 receptor (Rattus norvegicus, UniProt P61169); experiment: D-2 Binding (3H-spiroperidol, homogenized limbic brain tissue)
T1 construct: from tissue; host or cells: homogenized limbic brain tissue
Description: High affinity for the dopamine D-2 receptor was established by the standard experimental test procedure of Fields, et al., Brain Res., 136, 578 (1977) and Yamamura et al., eds., Neurotransmitter Receptor Binding, Raven Press, N.Y. (1978) wherein homogenized limbic brain tissue is incubated with ^3 H-spiroperidol and various concentrations of test compound, filtered and washed and shaken with Hydrofluor scintillation cocktail (National Diagnostics) and counted in a Packard 460 CD scintillation counter.

[1] = molecular target: T2, serotonin 5-HT1A receptor (Rattus norvegicus, UniProt P19327); experiment: 5-HT1A Binding (displacement of [3H] 8-OHDPAT)
T2 construct: following the procedure of Hall et al., J. Neurochem; 44, 1685 (1985); from tissue
T2 sequence (P19327 1-422): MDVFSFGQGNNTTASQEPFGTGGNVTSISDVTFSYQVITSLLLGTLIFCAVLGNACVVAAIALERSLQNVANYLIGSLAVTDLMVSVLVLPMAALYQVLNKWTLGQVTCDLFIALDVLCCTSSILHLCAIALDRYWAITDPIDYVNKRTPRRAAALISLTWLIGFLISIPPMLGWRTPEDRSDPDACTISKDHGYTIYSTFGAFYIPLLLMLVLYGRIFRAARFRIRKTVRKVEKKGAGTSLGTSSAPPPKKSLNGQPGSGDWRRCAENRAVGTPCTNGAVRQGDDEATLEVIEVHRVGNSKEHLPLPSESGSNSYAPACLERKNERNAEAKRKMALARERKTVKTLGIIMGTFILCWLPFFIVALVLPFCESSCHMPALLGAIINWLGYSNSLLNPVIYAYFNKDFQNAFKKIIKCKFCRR
From the text: High affinity for the serotonin 5-HT1A receptor was established by testing the claimed compound's ability to displace [^3 H] 8-OHDPAT (dipropylaminotetralin) from the 5-HT1A serotonin receptor following the procedure of Hall et al., J. Neurochem. 44, 1685 (1985). […] The anxiolytic activity of buspirone is believed to be, at least partially, due to its 5-HT1A receptor affinity (Vander Maclen et al., Eur. J. Pharmacol. 1986, 129 (1-2) 133-130).

[2] = tested on: 5-HT1A serotonin receptor subtype; conditions: standard for anxiolytic activity; cited from earlier work

T1 sequence (P61169 whole entry): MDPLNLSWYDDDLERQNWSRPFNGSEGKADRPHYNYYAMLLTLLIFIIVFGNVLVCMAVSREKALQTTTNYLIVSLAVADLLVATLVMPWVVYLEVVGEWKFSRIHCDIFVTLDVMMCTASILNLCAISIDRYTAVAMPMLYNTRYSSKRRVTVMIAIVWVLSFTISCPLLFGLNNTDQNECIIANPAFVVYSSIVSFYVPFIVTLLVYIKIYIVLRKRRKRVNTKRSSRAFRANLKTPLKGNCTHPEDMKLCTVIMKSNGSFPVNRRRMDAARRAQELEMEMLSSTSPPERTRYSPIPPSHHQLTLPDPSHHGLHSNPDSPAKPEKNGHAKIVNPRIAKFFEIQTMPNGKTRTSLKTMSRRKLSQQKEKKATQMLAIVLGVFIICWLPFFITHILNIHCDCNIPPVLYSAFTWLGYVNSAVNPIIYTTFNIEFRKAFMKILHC

Compound | inhibition at 1 µM (dopamine D-2 receptor) [%] | inhibition at 0.1 µM [1] [%] | also measured
O=C1CC2(CCCC2)CC(=O)N1CCCCNCC1COc2ccccc2O1 (single isomer, unassigned; (-)) [(-)-MDL 72832] |  |  | binding at the 5-HT1A receptor site relative to the dextrorotary isomer (5-HT1A receptor site; (-)-isomer vs dextrorotary isomer): 32 times
O=C(NC1CCN(CC2COc3ccccc3O2)CC1)C12CC3CC(CC(C3)C1)C2 (stereo not drawn) [Example 1, N-[1-[(2,3-Dihydro-1,4-benzodioxin-2-yl)methyl]-4-piperidinyl]tricyclo[3.3.1.1^3,7]decane-1-carboxamide] | 29 | 59 | IC50 [1]: 107 nM
O=C1C2C3C=CC(C4C=CC43)C2C(=O)N1C1CCN(CC2COc3ccccc3O2)CC1 (stereo not drawn) [Example 2, 3a, 4,4a, 6a, 7,7a-Hexahydro-2-[1-[(2,3-Dihydro-1,4-benzodioxin-2-yl)methyl]-4-piperidinyl]-4,7-etheno-1H-cyclobut[f]isoindole-1,3(2H)-dione] |  | 4 | 
O=C1c2ccccc2S(=O)(=O)N1C1CCN(CC2COc3ccccc3O2)CC1 (stereo not drawn) [Example 3, 2-[1-[(2,3-Dihydro-1,4-benzodioxin-2-yl)methyl]-4-piperidinyl]-1,2-benzoisothiazol-3(2H)-one 1,1-dioxide] |  | 45 | 
O=C1C2CC(C(=O)N1CC1CCN(CC3COc4ccccc4O3)CC1)C1C2C2C3CC4C2C4C31 (stereo not drawn) [Example 4, 3-[[1-[(2,3-Dihydro-1,4-benzodioxin-2-yl)methyl]-4-piperidinyl]methyl]decahydro-2H-1,5-methano-6,7,9-methenopentaleno[1,2-d]azepine-2,4(3H)-dione] | 97 | 96 | 
O=C(NCC1CCN(CC2COc3ccccc3O2)CC1)C12CC3CC(CC(C3)C1)C2 (stereo not drawn) [Example 5, N-[[1-[(2,3-Dihydro-1,4-benzodioxin-2-yl)methyl]-4-piperidinyl]methyl]tricyclo[3.3.1.1^3,7]decane-1-carboxamide] | 52 | 92 | 
O=C1CC2(CCCC2)CC(=O)N1CCCCNCC1COc2ccccc2O1 (stereo not drawn) [MDL 72832, 8-[4-(1,4-benzodioxan-2-ylmethylamino)butyl]-8-azaspiro[4.5]decane-7,9-dione] |  |  | ligand selectivity for 5-HT1A receptors (5-HT1A receptor site; Fozard et al. 1987): selective and stereospecific
O=C1CC2(CCCC2)CC(=O)N1CCCCN1CCN(c2ncccn2)CC1 [buspirone] |  |  | affinity for the 5-HT1A serotonin receptor subtype [2]: potent affinity
